Experimental data taken from article PMC5303825, “The ancient CYP716 family is a major contributor to the diversification of eudicot triterpenoid biosynthesis” (Nature Communications, 2017).

Key:
Format in all cases: cell-based
CYP716A113v1 = target: T1, CYP716A113v1 (Aquilegia coerulea, UniProt A0A1I9Q601); experiment: GC-MS of products in spent medium of engineered yeast; details: co-expressed SlCAS and MTR1; putative hydroxy-cycloartenol product
T1 construct: full-length ORF from cDNA, expressed in Saccharomyces cerevisiae with tomato SlCAS and M. truncatula reductase MTR1
T1 sequence (A0A1I9Q601 1-485): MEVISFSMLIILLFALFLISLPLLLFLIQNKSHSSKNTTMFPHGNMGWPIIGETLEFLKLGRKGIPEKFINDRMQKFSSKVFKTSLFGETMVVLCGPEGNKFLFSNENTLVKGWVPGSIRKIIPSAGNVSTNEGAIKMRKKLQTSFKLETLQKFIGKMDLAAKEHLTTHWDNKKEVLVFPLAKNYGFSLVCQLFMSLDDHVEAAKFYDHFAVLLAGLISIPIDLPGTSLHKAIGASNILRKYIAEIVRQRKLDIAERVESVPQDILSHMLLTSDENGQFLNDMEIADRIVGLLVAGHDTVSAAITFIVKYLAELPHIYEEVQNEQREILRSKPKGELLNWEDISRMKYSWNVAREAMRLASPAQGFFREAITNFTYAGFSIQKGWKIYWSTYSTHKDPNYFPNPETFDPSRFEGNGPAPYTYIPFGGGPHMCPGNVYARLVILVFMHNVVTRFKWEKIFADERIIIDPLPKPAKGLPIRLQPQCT

CYP716E41 = target: T2, CYP716E41 (Centella asiatica, UniProt A0A1I9Q5Y6); experiment: as above; details: co-expressed GgBAS, CYP716A83 and MTR1; putative product 6β-hydroxy oleanolic acid
T2 construct: full-length ORF from cDNA library, expressed in Saccharomyces cerevisiae with GgBAS, CYP716A83 and M. truncatula reductase MTR1
T2 sequence (A0A1I9Q5Y6 1-477): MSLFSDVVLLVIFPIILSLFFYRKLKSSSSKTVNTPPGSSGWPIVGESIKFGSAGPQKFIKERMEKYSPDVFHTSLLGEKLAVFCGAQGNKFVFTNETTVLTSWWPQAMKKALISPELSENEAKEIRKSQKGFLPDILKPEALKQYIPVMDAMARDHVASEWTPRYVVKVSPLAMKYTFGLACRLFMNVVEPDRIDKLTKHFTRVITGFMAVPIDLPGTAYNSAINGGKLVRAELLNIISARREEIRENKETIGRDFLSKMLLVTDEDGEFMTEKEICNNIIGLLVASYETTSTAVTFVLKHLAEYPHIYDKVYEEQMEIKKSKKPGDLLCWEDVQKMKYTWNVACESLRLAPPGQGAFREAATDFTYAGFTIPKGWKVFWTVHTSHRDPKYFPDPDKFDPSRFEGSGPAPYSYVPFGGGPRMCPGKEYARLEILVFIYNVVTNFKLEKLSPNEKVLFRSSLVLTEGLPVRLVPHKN

CYP716C11 = target: T3, CYP716C11 (Centella asiatica, UniProt A0A1I9Q5Y7); experiment: as above; details: co-expressed GgBAS, CYP716A83 and MTR1; product maslinic acid
T3 construct: gene MAA45; full-length ORF from cDNA library, expressed in Saccharomyces cerevisiae with GgBAS (or CaDDS), CYP716A83 and M. truncatula reductase MTR1; T2A polyprotein CYP716A83-CYP716C11
T3 sequence (A0A1I9Q5Y7 1-475): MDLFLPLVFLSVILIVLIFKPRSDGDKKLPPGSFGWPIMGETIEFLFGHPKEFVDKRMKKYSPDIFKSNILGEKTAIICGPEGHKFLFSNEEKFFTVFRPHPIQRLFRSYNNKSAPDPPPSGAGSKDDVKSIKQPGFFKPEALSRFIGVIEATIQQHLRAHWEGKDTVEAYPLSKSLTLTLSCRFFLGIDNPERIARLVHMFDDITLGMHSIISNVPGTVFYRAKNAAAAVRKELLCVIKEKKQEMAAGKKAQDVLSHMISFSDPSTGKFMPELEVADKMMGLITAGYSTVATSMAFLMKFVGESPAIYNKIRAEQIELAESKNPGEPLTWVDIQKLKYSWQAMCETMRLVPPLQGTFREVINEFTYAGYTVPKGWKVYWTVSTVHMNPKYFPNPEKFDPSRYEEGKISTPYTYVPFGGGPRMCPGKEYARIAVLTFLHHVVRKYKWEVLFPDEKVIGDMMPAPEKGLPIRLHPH

CYP716A83 = target: T4, CYP716A83 (Centella asiatica, UniProt A0A1I9Q5Y4); experiment: as above
T4 construct: full-length ORF from cDNA library, expressed in Saccharomyces cerevisiae with GgBAS (or CaDDS) and M. truncatula reductase MTR1; T2A polyprotein with CYP716C11 in some strains
T4 sequence (A0A1I9Q5Y4 entry or part of it): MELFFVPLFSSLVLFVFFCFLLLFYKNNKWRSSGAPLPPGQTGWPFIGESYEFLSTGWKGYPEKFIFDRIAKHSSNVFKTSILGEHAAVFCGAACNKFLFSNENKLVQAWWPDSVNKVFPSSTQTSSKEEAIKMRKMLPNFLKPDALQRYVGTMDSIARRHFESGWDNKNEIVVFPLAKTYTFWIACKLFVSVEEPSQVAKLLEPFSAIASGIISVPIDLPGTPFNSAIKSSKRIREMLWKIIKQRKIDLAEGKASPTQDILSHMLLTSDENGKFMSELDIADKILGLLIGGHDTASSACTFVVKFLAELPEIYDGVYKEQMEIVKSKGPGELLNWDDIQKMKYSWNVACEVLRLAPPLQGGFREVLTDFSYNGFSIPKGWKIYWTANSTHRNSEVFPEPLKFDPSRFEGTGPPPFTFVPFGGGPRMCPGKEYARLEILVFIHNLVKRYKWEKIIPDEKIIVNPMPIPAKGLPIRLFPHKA

CYP716A140 = target: T5, CYP716A140 (Platycodon grandiflorus, UniProt A0A1I9Q5Y8); experiment: as above; details: co-expressed GgBAS and MTR1; products of C-28 oxidation: erythrodiol, oleanolic acid
T5 construct: full-length ORF (RACE), expressed in Saccharomyces cerevisiae with GgBAS and M. truncatula reductase MTR1
T5 sequence (A0A1I9Q5Y8 1-479): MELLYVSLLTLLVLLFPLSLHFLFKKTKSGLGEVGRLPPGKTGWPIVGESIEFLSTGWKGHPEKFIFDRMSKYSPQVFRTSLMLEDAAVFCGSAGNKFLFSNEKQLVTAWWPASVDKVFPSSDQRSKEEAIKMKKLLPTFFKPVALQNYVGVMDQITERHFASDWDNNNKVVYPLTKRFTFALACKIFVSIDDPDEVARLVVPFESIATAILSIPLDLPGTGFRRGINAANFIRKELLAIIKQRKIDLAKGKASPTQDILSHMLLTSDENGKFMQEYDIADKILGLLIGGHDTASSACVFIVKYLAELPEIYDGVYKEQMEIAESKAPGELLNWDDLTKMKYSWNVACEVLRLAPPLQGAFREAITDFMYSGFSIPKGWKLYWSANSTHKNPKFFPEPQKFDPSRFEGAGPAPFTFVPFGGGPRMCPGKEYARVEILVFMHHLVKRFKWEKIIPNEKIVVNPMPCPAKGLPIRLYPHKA

CYP716A141 = target: T6, CYP716A141 (Platycodon grandiflorus, UniProt A0A1I9Q5Z0); experiment: GC-MS of engineered yeast medium; product NMR; details: co-expressed GgBAS and MTR1; product 16β-hydroxy β-amyrin (minor erythrodiol, oleanolic acid)
T6 construct: full-length ORF (RACE), expressed in Saccharomyces cerevisiae with GgBAS and M. truncatula reductase MTR1; b33 once misprints C. asiatica
T6 sequence (A0A1I9Q5Z0 1-481): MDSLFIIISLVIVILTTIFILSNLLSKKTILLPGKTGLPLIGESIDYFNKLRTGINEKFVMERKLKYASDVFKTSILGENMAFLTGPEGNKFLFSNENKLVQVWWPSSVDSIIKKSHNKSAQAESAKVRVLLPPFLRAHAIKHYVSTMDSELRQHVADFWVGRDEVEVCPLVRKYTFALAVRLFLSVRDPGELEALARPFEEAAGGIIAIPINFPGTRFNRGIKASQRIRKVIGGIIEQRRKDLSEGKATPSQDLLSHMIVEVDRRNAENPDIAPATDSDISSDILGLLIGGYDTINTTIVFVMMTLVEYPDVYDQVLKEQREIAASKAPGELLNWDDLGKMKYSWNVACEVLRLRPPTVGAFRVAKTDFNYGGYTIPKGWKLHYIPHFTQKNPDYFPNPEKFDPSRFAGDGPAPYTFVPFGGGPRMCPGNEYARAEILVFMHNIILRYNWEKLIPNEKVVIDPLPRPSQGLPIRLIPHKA

CYP716A86 = target: T7, CYP716A86 (Centella asiatica, UniProt A0A1I9Q5Y3); experiment: GC-MS of products in spent medium of engineered yeast; details: co-expressed GgBAS and MTR1; products erythrodiol, oleanolic aldehyde, oleanolic acid
T7 construct: full-length ORF from cDNA library, expressed in Saccharomyces cerevisiae with GgBAS and M. truncatula reductase MTR1
T7 sequence (A0A1I9Q5Y3 1-482): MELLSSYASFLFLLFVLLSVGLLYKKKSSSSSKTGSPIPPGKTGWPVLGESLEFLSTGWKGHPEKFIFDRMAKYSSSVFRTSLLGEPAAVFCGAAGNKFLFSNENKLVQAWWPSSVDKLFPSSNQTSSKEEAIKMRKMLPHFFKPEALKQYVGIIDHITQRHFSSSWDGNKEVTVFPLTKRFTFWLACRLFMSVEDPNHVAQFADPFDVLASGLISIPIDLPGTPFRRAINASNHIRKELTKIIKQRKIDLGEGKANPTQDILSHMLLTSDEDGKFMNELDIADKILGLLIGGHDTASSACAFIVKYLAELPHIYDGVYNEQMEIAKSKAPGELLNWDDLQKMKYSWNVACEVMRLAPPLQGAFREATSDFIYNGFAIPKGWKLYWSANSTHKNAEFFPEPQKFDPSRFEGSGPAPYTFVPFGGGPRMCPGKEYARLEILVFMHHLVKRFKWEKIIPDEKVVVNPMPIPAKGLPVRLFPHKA

CYP716A110 = target: T8, CYP716A110 (Aquilegia coerulea, UniProt A0A1I9Q5Z9); experiment: as above; details: co-expressed GgBAS and MTR1; products erythrodiol, oleanolic acid
T8 construct: full-length ORF from cDNA, expressed in Saccharomyces cerevisiae with GgBAS and M. truncatula reductase MTR1
T8 sequence (A0A1I9Q5Z9 1-480): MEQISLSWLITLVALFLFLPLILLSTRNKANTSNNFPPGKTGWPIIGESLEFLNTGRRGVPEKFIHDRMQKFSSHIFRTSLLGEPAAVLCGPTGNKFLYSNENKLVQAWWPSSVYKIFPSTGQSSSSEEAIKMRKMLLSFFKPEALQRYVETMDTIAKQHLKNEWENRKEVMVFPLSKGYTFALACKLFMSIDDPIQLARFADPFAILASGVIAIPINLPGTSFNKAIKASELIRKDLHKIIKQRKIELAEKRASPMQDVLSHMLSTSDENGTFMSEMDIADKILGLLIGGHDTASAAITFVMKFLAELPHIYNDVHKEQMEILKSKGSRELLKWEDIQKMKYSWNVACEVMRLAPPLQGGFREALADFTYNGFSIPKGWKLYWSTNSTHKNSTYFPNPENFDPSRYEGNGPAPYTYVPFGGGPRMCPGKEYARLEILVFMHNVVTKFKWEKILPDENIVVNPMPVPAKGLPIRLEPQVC

## CC(C)=CCC[C@@H](C)[C@H]1CC[C@@]2(C)[C@@H]3CC[C@H]4C(C)(C)[C@@H](O)CC[C@@]45C[C@@]35CC[C@]12C [cycloartenol]
CYP716A113v1
  GC-MS of products in spent medium of engineered yeast: dependent on both SlCAS and CYP716A113v1

## CC1(C)CC[C@]2(C(=O)O)CC[C@]3(C)C(=CC[C@@H]4[C@@]5(C)CC[C@H](O)C(C)(C)[C@@H]5CC[C@]43C)[C@@H]2C1 [oleanolic acid]
CYP716E41
  GC-MS of products in spent medium of engineered yeast: CYP716C11 and CYP716E41 converted oleanolic acid to maslinic acid
CYP716C11
  GC-MS of products in spent medium of engineered yeast: CYP716C11 and CYP716E41 converted oleanolic acid to maslinic acid

## C[C@H]1[C@H](C)CC[C@]2(C)CC[C@]3(C)C(=CC[C@@H]4[C@@]5(C)CC[C@H](O)C(C)(C)[C@@H]5CC[C@]43C)[C@H]12 [α-amyrin]
CYP716A83; co-expressed CaDDS and MTR1 (with CYP716E41 or CYP716C11), product ursolic acid
  GC-MS of products in spent medium of engineered yeast: CYP716A83, CYP716C11 and CYP716E41 can function on both oleanane and ursane backbones

## CC1(C)CC[C@]2(C)CC[C@]3(C)C(=CC[C@@H]4[C@@]5(C)CC[C@H](O)C(C)(C)[C@@H]5CC[C@]43C)[C@@H]2C1 [β-amyrin]
CYP716A140
  GC-MS of products in spent medium of engineered yeast: CYP716A140-expressing yeast showed three new peaks corresponding to C-28 oxidation
CYP716A141
  GC-MS of engineered yeast medium; product NMR: CYP716A141 appears to be a multifunctional β-amyrin oxidase
CYP716A86
  GC-MS of products in spent medium of engineered yeast: CYP716A83 and CYP716A86 catalyse the three-step oxidation of β-amyrin at the C-28 position
CYP716A83; co-expressed GgBAS and MTR1, in vivo, products erythrodiol, oleanolic aldehyde, oleanolic acid
  GC-MS of products in spent medium of engineered yeast: CYP716A83 and CYP716A86 catalyse the three-step oxidation of β-amyrin at the C-28 position
CYP716A110
  GC-MS of products in spent medium of engineered yeast: CYP716A110 revealed new peaks corresponding to the erythrodiol and oleanolic acid standards
